Laboratory results taken from PubChem BioAssay (NCI).
Where “and” joins values, the source holds several entries; their conditions need not be identical. Identical values can stand only once.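 Cells were grown in 96-well plates and exposed to each compound for 48 hours at five concentrations; endpoints were interpolated linearly between bracketing concentrations, or set to the highest concentration if not reached. At the GI50, growth is halved. TGI: total growth inhibition.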

Test system: K-562 leukemia
Assay: NCI tumour cell line growth inhibition, 48 h

Row | SMILES | GI50 | TGI
1 | Clc1ccc2c(c1)[nH]c1c2nc2ccccn21 | 23.9 µM and 3.96 µM | 74.8 µM and 37.3 µM
2 | CCOC(=O)c1cnc2c(ccc3[nH]n(C)nc32)c1=O | – | > 100 µM
3 | NC(=S)N/N=C(\CC1OC(=O)c2ccccc21)c1ccc(Cl)cc1 (centres undefined) | – | > 100 µM
4 | COc1ccc2occ(CCC(=O)O)c2c1 | – | > 100 µM
5 | COC(=O)C(C(=O)c1ccccc1)C(C(=O)C(=O)Nc1ccc(OC)cc1OC)C(=O)C(=O)c1ccc(C)cc1 (centres undefined) | – | > 100 µM
6 | CC1(C)COC(C2(C)C(=O)C=C(c3ccccc3)c3ccccc32)=N1 (centres undefined) | – | > 100 µM
7 | O=C(Nc1ccn(CCO)c(=O)n1)c1ccccc1 | – | > 100 µM
8 | O=C1CCC2(c3ccc(Cl)cc3)Nc3ncccc3N12 (centres undefined) | – | > 100 µM
9 | CC12C/C(=C\c3ccccc3)C(=O)C3C1CCCC32 | – | > 100 µM
10 | OC(CC1SCCCS1)c1ccccc1 (centres undefined) | – | > 100 µM
11 | CCCCOC(=O)CNC(=O)OC/C=C/C#CC#C/C=C/COC(=O)NCC(=O)OCCCC | > 100 µM | > 100 µM
12 | O=C1c2ccccc2C(=O)N1CCn1ccc(NC(c2ccccc2)(c2ccccc2)c2ccccc2)nc1=O | – | 63.8 µM
13 | CC(C)(C)NNC(=O)CCn1[nH]c(=O)c(Cl)c(Cl)c1=O | – | > 100 µM
14 | CCC12CCCN(Cc3ccccc3)C1c1c(n(C)c3ccccc13)CC2 (centres undefined) | – | > 253 µM
15 | CCN(CC)CCCN1CCc2c([nH]c3ccccc23)C1c1cccnc1 (centres undefined) | – | > 100 µM
16 | Nc1nc(Cl)cc(NCCCCCCCCNc2cc(Cl)nc(N)n2)n1 | – | > 100 µM
17 | CC(C)N(C(=O)C12C3C4C1C1C4(C#N)C3C12C#N)C(C)C (centres undefined) | – | > 100 µM
18 | O=C1CCC(Cl)=CC2CCCN12 (centres undefined) | – | > 100 µM
19 | c1ccc2cc(-c3cc4ccccc4s3)ccc2c1 | – | > 100 µM
20 | Cc1ccc(S(=O)(=O)N(C=O)N=C2CCN(Cc3ccccc3)CC2)cc1 | – | > 100 µM

Row | SMILES | GI50 | TGI
21 | CC(C)C(CCl)NC(=O)c1cccc(C(=O)N[C@H](CCl)C(C)C)n1 (stereo in doubt) | – | > 100 µM
22 | CCC(=O)CC(=O)CCC(=O)Nc1cc(C)ccc1C | – | > 100 µM
23 | COC(=O)COc1ccccc1/C=C1\N=C(c2ccccc2)N(c2cc(C(F)(F)F)ccc2Cl)C1=O | 33.8 µM | > 100 µM
24 | C=C1C(=O)OC2CC(C)C(C(CC(C)=O)OC(C)=O)=CCC12 (centres undefined) | – | 17.9 µM
25 | CC(=O)OC1COC(Oc2c(C)c3c4c(c2O)[C@@H](C)CC[C@@H]4[C@@H](C)C[C@H]3C=C(C)C)C(O)C1OC(C)=O (some centres undefined) | 12.5 µM | 32.8 µM
26 | S=C(Nc1ccc(Cl)cc1)Nc1ccc(-c2nc3ccccc3s2)cc1 | 7.28 µM | 47.2 µM
27 | CC(=O)Nc1ccc(S(=O)(=O)N2C(=O)CCC2C(=O)Nc2ccc(Br)cc2)cc1 (centres undefined) | 1.95 µM | 10.7 µM
28 | CC(=O)CCn1ncc(Cl)c(Cl)c1=O | – | 18.5 µM
29 | CO/N=C(/C)c1cccc(Nc2cc(-n3nnc4ccccc43)nc3ccccc23)c1 | 15.2 µM | > 100 µM
30 | C[N+](C)(C)CC1CCCc2ccccc2C1=O (centres undefined) | 0.303 µM | 6.72 µM and 1.02 µM
31 | COc1cc(C(=O)N2CCN(C=O)C2=S)cc(OC)c1OC | 30.8 µM | > 100 µM
32 | Cn1c(I)c(C#CCO[Si](C)(C)C(C)(C)C)c(=O)[nH]c1=O | 2.06 µM | 4.36 µM
33 | CCCCC#CC1=C(Br)C(=O)OC1 | 0.279 µM | > 100 µM
34 | O=C(Nc1ccc(Br)cc1F)c1cc(F)ccc1O | 0.445 µM | > 100 µM
35 | CC/C=C\C[C@H](O)C/C=C1/C(=O)C(Cl)=C[C@@H]1C/C=C\CCCC(=O)OC | 0.269 µM | 16.7 µM
36 | c1ccc(-c2nnc(-c3ccccn3)s2)nc1 | > 100 µM | > 100 µM
37 | CN1CCN(C2CCN(C(=O)Nc3cc(Oc4ccc(NC(=O)C5(C(=O)Nc6ccc(F)cc6)CC5)c(F)c4)ccn3)CC2)CC1 | 0.514 µM | > 2.53 µM
38 | CCN1CCN(C(=O)[C@@]2(C)CC[C@]3(C)CC[C@]4(C)C(=CC(=O)[C@@H]5[C@@]6(C)CC[C@H](OC7C[C@@H](O)[C@@H](O)C(C)O7)C(C)(C)[C@@H]6CC[C@]54C)[C@@H]3C2)CC1 (some centres undefined) | 1.08 µM | 2.66 µM
39 | Nc1nn2cc(F)cnc2c1C(=O)Nc1cncc(F)c1N1CCC(C(=O)N2CCN(C3COC3)CC2)CC1 | 0.281 µM | 2.74 µM

Test system: KM20L2 colon
Assay: NCI tumour cell line growth inhibition, 48 h

Row | SMILES | TGI | GI50 [µM]
40 | Clc1ccc2c(c1)[nH]c1c2nc2ccccn21 | 74.9 µM and 28.7 µM | –
41 | CCOC(=O)c1cnc2c(ccc3[nH]n(C)nc32)c1=O | > 100 µM | –
42 | NC(=S)N/N=C(\CC1OC(=O)c2ccccc21)c1ccc(Cl)cc1 (centres undefined) | > 100 µM | –
43 | COc1ccc2occ(CCC(=O)O)c2c1 | > 100 µM | –
44 | COC(=O)C(C(=O)c1ccccc1)C(C(=O)C(=O)Nc1ccc(OC)cc1OC)C(=O)C(=O)c1ccc(C)cc1 (centres undefined) | > 100 µM | –
45 | CC1(C)COC(C2(C)C(=O)C=C(c3ccccc3)c3ccccc32)=N1 (centres undefined) | > 100 µM | –
46 | O=C(Nc1ccn(CCO)c(=O)n1)c1ccccc1 | > 100 µM | –
47 | O=C1CCC2(c3ccc(Cl)cc3)Nc3ncccc3N12 (centres undefined) | > 100 µM | –
48 | CC12C/C(=C\c3ccccc3)C(=O)C3C1CCCC32 | > 100 µM | –
49 | OC(CC1SCCCS1)c1ccccc1 (centres undefined) | > 100 µM | –
50 | CCCCOC(=O)CNC(=O)OC/C=C/C#CC#C/C=C/COC(=O)NCC(=O)OCCCC | > 100 µM | > 100
51 | O=C1c2ccccc2C(=O)N1CCn1ccc(NC(c2ccccc2)(c2ccccc2)c2ccccc2)nc1=O | 27.5 µM | –
52 | CC(C)(C)NNC(=O)CCn1[nH]c(=O)c(Cl)c(Cl)c1=O | > 100 µM | –
53 | CCC12CCCN(Cc3ccccc3)C1c1c(n(C)c3ccccc13)CC2 (centres undefined) | > 253 µM | –
54 | CCN(CC)CCCN1CCc2c([nH]c3ccccc23)C1c1cccnc1 (centres undefined) | > 100 µM | –
55 | Nc1nc(Cl)cc(NCCCCCCCCNc2cc(Cl)nc(N)n2)n1 | > 100 µM | –
56 | CC(C)N(C(=O)C12C3C4C1C1C4(C#N)C3C12C#N)C(C)C (centres undefined) | > 100 µM | –
57 | O=C1CCC(Cl)=CC2CCCN12 (centres undefined) | > 100 µM | –
58 | c1ccc2cc(-c3cc4ccccc4s3)ccc2c1 | > 100 µM | –
59 | Cc1ccc(S(=O)(=O)N(C=O)N=C2CCN(Cc3ccccc3)CC2)cc1 | > 100 µM | –
60 | CC(C)C(CCl)NC(=O)c1cccc(C(=O)N[C@H](CCl)C(C)C)n1 (stereo in doubt) | > 100 µM | –
61 | CCC(=O)CC(=O)CCC(=O)Nc1cc(C)ccc1C | > 100 µM | –
62 | CC(=O)CCn1ncc(Cl)c(Cl)c1=O | 36.2 µM | –
63 | CN1CC(=O)N2Cc3ccccc3-n3cccc3C2C1 (centres undefined) | > 100 µM | –

Test system: MDA-MB-231 breast
Assay: NCI tumour cell line growth inhibition, 48 h

Row | SMILES | GI50 [µM] | TGI [µM]
64 | COC(=O)COc1ccccc1/C=C1\N=C(c2ccccc2)N(c2cc(C(F)(F)F)ccc2Cl)C1=O | > 100 | > 100
65 | C=C1C(=O)OC2CC(C)C(C(CC(C)=O)OC(C)=O)=CCC12 (centres undefined) | – | 27.2
66 | CC(=O)OC1COC(Oc2c(C)c3c4c(c2O)[C@@H](C)CC[C@@H]4[C@@H](C)C[C@H]3C=C(C)C)C(O)C1OC(C)=O (some centres undefined) | 16.2 | 31.9
67 | S=C(Nc1ccc(Cl)cc1)Nc1ccc(-c2nc3ccccc3s2)cc1 | 15.3 | 34.3
68 | CC(=O)Nc1ccc(S(=O)(=O)N2C(=O)CCC2C(=O)Nc2ccc(Br)cc2)cc1 (centres undefined) | 1.29 | 6.94
69 | CO/N=C(/C)c1cccc(Nc2cc(-n3nnc4ccccc43)nc3ccccc23)c1 | 7.55 | 60.2
70 | C[N+](C)(C)CC1CCCc2ccccc2C1=O (centres undefined) | – | 30.6
71 | COc1cc(C(=O)N2CCN(C=O)C2=S)cc(OC)c1OC | 21.5 | 57.9
72 | Cn1c(I)c(C#CCO[Si](C)(C)C(C)(C)C)c(=O)[nH]c1=O | 17.3 | 33.1
73 | CCCCC#CC1=C(Br)C(=O)OC1 | 1.78 | 4.03
74 | O=C(Nc1ccc(Br)cc1F)c1cc(F)ccc1O | 0.41 | 4
75 | CC/C=C\C[C@H](O)C/C=C1/C(=O)C(Cl)=C[C@@H]1C/C=C\CCCC(=O)OC | 0.71 | 2.9
76 | c1ccc(-c2nnc(-c3ccccn3)s2)nc1 | 72.5 | > 100
77 | CN1CCN(C2CCN(C(=O)Nc3cc(Oc4ccc(NC(=O)C5(C(=O)Nc6ccc(F)cc6)CC5)c(F)c4)ccn3)CC2)CC1 | 0.981 | > 7
78 | CCN1CCN(C(=O)[C@@]2(C)CC[C@]3(C)CC[C@]4(C)C(=CC(=O)[C@@H]5[C@@]6(C)CC[C@H](OC7C[C@@H](O)[C@@H](O)C(C)O7)C(C)(C)[C@@H]6CC[C@]54C)[C@@H]3C2)CC1 (some centres undefined) | 1.13 | 2.59
